From ChEMBL document CHEMBL1799952, “Synthesis of novel heme-interacting acridone derivatives to prevent free heme-mediated protein oxidation and degradation” (Bioorg Med Chem Lett, 2011)
The source made the active and inactive calls. No cut-off for these calls is given here.

Tests used:
Heme [1] = test: Binding affinity to heme assessed as equilibrium binding constant by UV-visible spectrophotometry
Heme [2] = test: Inhibition of heme-mediated bovine serum albumin degradation at 100 uM after 1 hr by gel electrophoresis in presence of H2O2 at pH 7.4
Heme [3] = test: Inhibition of heme-mediated bovine serum albumin oxidation assessed as protein carbonyl formation after 1 hr in presence of H2O2 at pH 7.4

| Ka (Heme [1]) | inhibition (Heme [2]) | IC50 (Heme [3]) | Compound |
| --- | --- | --- | --- |
| 3.9 ×10⁴ /M | Active | 42 µM | COc1cc2c(c(O)c1OC)c(=O)c1ccccc1n2C [ARBORININE] |
| 2.7 ×10⁴ /M |  | 44 µM | COc1ccc2[nH]c3ccccc3c(=O)c2c1 |
| 4.3 ×10⁴ /M | Active | 41 µM | O=c1c2ccccc2[nH]c2cc([N+](=O)[O-])ccc12 |
| 4.6 ×10⁴ /M | Active | 36 µM | O=c1c2ccccc2[nH]c2cc(Cl)ccc12 |
| 3.8 ×10⁴ /M |  | 43 µM | O=C(O)c1cccc2c(=O)c3ccccc3[nH]c12 |

| Compound | Ka (Heme [1]) | inhibition (Heme [2]) | IC50 (Heme [3]) |
| --- | --- | --- | --- |
| O=c1c2ccccc2[nH]c2ccccc12 [ACRIDONE] | 2.4 ×10⁴ /M |  | 55 µM |
